Experiments:
[1] = tested on: NIH/Swiss female mice; assay: OGTT DOA (oral glucose tolerance test for duration of action); format: in vivo, mouse; settings: for % Glucose Lowering Compared to Vehicle: 25 nmol/kg IP at t=-1 day, glucose gavage 1.5 g/kg at t=0, blood glucose at 30 min, 24 hours post dose
Method: In vivo assays for activity and duration of action and pharmacokinetics can be done using known methods. For example, duration can be performed using an oral glucose tolerance test (OGTT) in which the drug is administered to the subject at a desired time point before the glucose is administered orally (to measure drug duration of action; OGTT DOA) and glucose blood levels are measured (e.g. readily done in mice). Activity and duration can also be measured using an intravenous glucose tolerance test (IVGTT) in which the drug is administered to the subject at a desired time point before the glucose is administered IV (IVGTT DOA) and blood glucose levels are measured (e.g. can readily be done in rats). Preferred engineered compounds have a desired effect on blood glucose of at least 24 hours duration after a single dose of drug, preferably at least 3 days, at least 4 days, at least 5 days, at least 6 days, and at least 1 week after the single dose of drug is given.
The effects on blood glucose prior to glucose gavage ([…]) and at 30 minutes post-glucose gavage were investigated 1 day post dose of peptide compound with varying amounts of Cmpd 15, with results shown in FIGS. 1A-1B. Bars represent mean±sd. Peptide was injected IP at t=−1 day. Glucose gavage (1.5 g/kg) given at t=0 to 4-hour fasted NIH/Swiss female mice. Blood glucose was measured with a OneTouch® Ultra® (LifeScan, Inc., a Johnson & Johnson Company, Milpitas, Calif.) * p<0.05 vs. vehicle control; ANOVA, Dunnett's test. This OGTT DOA indicates drug activity is present at least 24 hours after drug was administered. Exendin-4 (unconjugated) was ineffective in this assay when dosed at t-24 hours (1 day prior to the glucose assay), and even at higher doses.
The effects on blood glucose prior to gavage ([…]) and at 30 min were investigated 2 day post dose with varying amounts of Cmpd 15, with results shown in FIGS. 2A-2B. This OGTT DOA indicates drug activity is present at least 48 hours after drug was administered.
A comparison of the effects of Cmpds 15 and 8 on blood glucose was conducted, with results depicts in FIGS. 3A-3B. This OGTT DOA indicates drug activity is present at least 24 hours after drug was administered.
The effects of Cmpds 15, 8 and 10 on the change in blood glucose at 30 min (% pre-gavage) was investigated, as depicted in FIG. 7. In the figure, bars represent mean±s.d. Test compound was injected IP at t=−1 day. Glucose gavage (1.5 g/kg) given at t=0 to 4 hr fasted NIH/Swiss female mice. Blood glucose was measured as described herein. This OGTT DOA indicates drug activity is present at least 24 hours after drug was administered.
The effects of compounds disclosed herein on the change in blood glucose at 30 min (% pre-gavage) were investigated as described above. Test compound was injected IP at t=−1 day at 25 nmol/kg. Glucose gavage (1.5 g/kg) given at t=0 to 4 hr fasted NIH/Swiss female mice. Blood glucose was measured as described herein. This OGTT DOA indicates drug activity is present at least 24 hours after drug was administered. […] Exendin-4 (unconjugated) was ineffective in this assay when dosed at t-24 hours, and even at higher doses. […] Cmpd 22 with an albumin binding sequence the PAB protein from P. magnus had little if any […] (3%) in the above assay.

[2] = Stability in human plasma; format: in vitro ADME; settings: 10 μg/ml in human plasma, 37 degrees C, 5 hours; normalized to a standard (100%)
[3] = tested on: human kidney brush border membrane protein extracts; assay: Human kidney brush border membrane (KBBM) stability assay; format: in vitro ADME; settings: hKBBM, 30 microM peptide, 37 degrees C, 5 hours; relative to positive control
Method: Relative stability of representative peptides in a human kidney brush border membrane (KBBM) assay was performed as follows. Human kidney brush border membrane protein extracts are rich in various peptidases. […] In a separate vial, peptide stock solution (300 microM in 50% acetonitrile in water) was prepared and 70 microL of this solution was added to the above hKBBMP solution. The solution was gently mixed by manual shaking so that the final peptide concentration is 30 microM. Then 100 microL of this solution was aliquoted into six different tubes and into one tube 200 microL of enzyme stop solution (50% acetonitrile in water with 0.1% TFA) was added. This tube was used for the measurement of the initial peptide concentration at time t=0 minute while all other 5 tubes were incubated at 37 degrees C. using a water bath. At intervals of 1, 2, 3, 4 and 5 hour, each tube was taken out and quenched with 200 microL of stop solution. Finally, all six tubes were centrifuged at 1800×g for 10 min to remove any precipitated proteins. The supernatant (10 microL) was transferred into an HPLC auto sampler, and by using selected ion count method AUC was measured. Each sample was run in triplicates and average AUC was calculated for data analysis. Sample analysis was done on Agilent HPLC with mass detector with an acetonitrile with 0.1% TFA gradient. […]

[4] = Pharmacokinetic profile after subcutaneous dosing in normal HSD rats; format: in vivo, rat; settings: 25 nmol/kg single dose
Method: Blood was collected via tail bleed at t=1 hour, 3 hours, 6 hours, 24 hours, 48 hours, 72 hours, 96 hours and 168 hours from fed HSD male rats. Food and body weights were measured daily. […] Points represent mean±sd.

[5] = tested on: diabetic ob/ob mice; assay: Chronic exposure in diabetic ob/ob mice (twice weekly, 28 days); format: in vivo, mouse
Method: The time course of the effect of the test compound on body weight, glucose lowering and HbA1c lowering in ob/ob mice was investigated post dose, with values at 4 weeks presented in FIGS. 11A, 11B, 11C and 11D. […] Points represent mean±s.d. (standard deviation). Each test compound was injected IP on day=0 immediately following baseline sample collection in non-fasted male ob/ob mice. The effects observed for the 25 nmol/kg biw (twice weekly) dose was greater than that observed for exendin-4 given at ˜7.2 nmol/kg/d by continuous infusion (CSI), a dose known to provide a maximal efficacy for exendin-4. […] Unless indicated otherwise, blood glucose measures described herein employed a OneTouch® Ultra® device (LifeScan, Inc. Miliptas, Calif.).

[6] = tested on: ob/ob mice; assay: Effect on body weight, glucose and HbA1c in ob/ob mice after single sc dose; format: in vivo, mouse; settings: non-fasted male ob/ob mice; Cmpd 15 at 250 nmol/kg sc on day 0
Method: The time course of the effect of Cmpd 15 on body weight, glucose and HbA1c in ob/ob mice was investigated post dose. […] Changes in glucose (% pre-treatment) and in HbA1c (% pre-treatment) are depicted in FIGS. 5B-5C. Points represent mean±s.d. (standard deviation). Cmpd 15 was injected sc on day=0 immediately following baseline sample collection in non-fasted male ob/ob mice. Unless indicated otherwise, blood glucose measures described herein employed a OneTouch® Ultra® device (LifeScan, Inc. Miliptas, Calif.).

[7] = tested on: renal cortical tubular epithelial cells; assay: Kidney vacuolization histopathology; format: in vivo, mouse; settings: C57BL6 female mice, sc injection days 0-6, sacrifice day 7
Method: With some drugs, such as some pegylated proteins, undesirable vacuoles can form in cytoplasm of epithelial cells lining the proximal convoluted tubules, which is an undesirable toxicity measure. […] C57BL6 female mice (n=2 cages, 3 mice/cage) were weighed daily 3 hours prior to lights out. Immediately after weighing, on days 0-6 mice were injected subcutaneously with test compound. Mice were sacrificed on day 7 and kidneys submitted for histopathology. […] A positive control compound known to cause vacuole formation was scored as 3. The ABD polypeptide itself scored 0. Cmpd 15 scored 0.

[8] = tested on: db/db mice; assay: Oral delivery (gavage) in diabetic db/db mice, blood glucose; settings: PBS/propylene glycol (50:50)
[9] = 25 and 250 nmol/kg IP twice each week for 28 days

## HGEGTFTSDLSKQLEEEAVRLFIEWLKQGGPSKEIISGGSLAEAKVLANRELDKYGVSDFYKRLINKAKTVEGVEALKLHILAALP [Cmpd 33]
[1]
  % Glucose Lowering Compared to Vehicle: −19%

## HGEGTFTSDLSKQMEEEAVRLFIEWLKNGGSLAEAKVLANRELDKYGVSDFYKRLINKAKTVEGVEALKLHILAALP [Cmpd 32]
[1]; dosed IP at t=-1 day
  glucose lowering activity when dosed 24 hours before the OGTT (in words): no glucose lowering

## HGEGTFTSDLSKQMEEEAVRLFIEWLKNTGGGGSASLAEAKVLANRELDKYGVSDFYKRLINKAKTVEGVEALKLHILAALP [Cmpd 10]
[1]
  % Glucose Lowering Compared to Vehicle: −22%

## CC[C@H](C)[C@H](NC(=O)[C@H](Cc1ccccc1)NC(=O)[C@H](CCC(=O)O)NC(=O)[C@H](CCCCN)NC(=O)[C@H](C)NC(=O)[C@H](C)NC(=O)[C@H](CCC(N)=O)NC(=O)CNC(=O)[C@H](CCC(=O)O)NC(=O)[C@H](CC(C)C)NC(=O)[C@H](Cc1ccc(O)cc1)NC(=O)[C@H](CO)NC(=O)[C@H](CO)NC(=O)[C@@H](NC(=O)[C@H](CC(=O)O)NC(=O)[C@H](CO)NC(=O)[C@@H](NC(=O)[C@H](Cc1ccccc1)NC(=O)[C@@H](NC(=O)CNC(=O)[C@H](CCC(=O)O)NC(=O)[C@H](C)NC(=O)[C@@H](N)Cc1c[nH]cn1)[C@@H](C)O)[C@@H](C)O)C(C)C)C(=O)N[C@@H](C)C(=O)N[C@@H](Cc1c[nH]c2ccccc12)C(=O)N[C@@H](CC(C)C)C(=O)N[C@H](C(=O)N[C@@H](CCCCN)C(=O)NCC(=O)N[C@@H](CCCNC(=N)N)C(N)=O)C(C)C [GLP-1(7-36) amide, reference compound]
[2]
  Percent Stable in Human Plasma: 41.7%
[3]
  Percent Stable: 16%

## HGEGTFTSDLSKQLEEEAVRLFIEWLKQGGPSKEIISTGGGGSASLAEAKVLANRELDKYGVSDFYKRLINKAKTVEGVEALKLHILAALP [Cmpd 15]
[4]
  apparent half-life: 54 h
[5]; 25 nmol/kg biw, comparable equimolar dose
  effects compared to maximally efficacious dose of exendin-4 (7.2 nmol/kg/d CSI): exceeded the glycemic and body weight loss effects of the maximally efficacious dose of exendin-4
[5]; 250 nmol/kg biw
  effects compared to maximally efficacious dose of exendin-4: significantly greater
[5]; [9]
  HbA1c lowering (% change from baseline): significant HbA1c lowering
  body weight loss (% change from baseline): significant body weight loss
[5]; equimolar dosing to liraglutide, data not shown
  HbA1c lowering and body weight loss compared to liraglutide: more effective than liraglutide
[5]; equimolar dosing, twice weekly (BIW), chronic exposure
  glucose lowering compared to liraglutide: superior to liraglutide
[6]
  effect on body weight: significant body weight loss
[7]
  Severity score for cytoplasmic vacuolation of renal cortical tubular epithelial cells: 0
[1]
  % Glucose Lowering Compared to Vehicle: −21%
[8]; 240 nmol/kg peroral gavage, to 120 minutes, 2-hour fasted db/db mice
  blood glucose lowering activity after oral dosing: active when dosed orally
[8]; peroral gavage, 1 mg/kg
  oral bioavailability: orally bioavailable
[2]
  Percent Stable in Human Plasma: 96.0%

## HGEGTFTSDLSKQLEEEAVRLFIEWLKQGGPSKEIISTGGGGSGGGSGGGSGGGSASLAEAKVLANRELDKYGVSDFYKRLINKAKTVEGVEALKLHILAALP [Cmpd 8]
[1]
  % Glucose Lowering Compared to Vehicle: −21%
